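Step 1: Grow cells in 96-well plates. Step 2: Expose to compound for 48 hours at 5 concentrations. Step 3: Interpolate endpoints linearly; if unreached, use highest concentration. GI50 marks 50% less growth. The concentration for full growth arrest is given as TGI.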
How the values were obtained:
Test in all cases: NCI anticancer screen, dose series, 48 h
COLO 205 colon = test system: COLO 205 colon
EKVX NSCLC = test system: EKVX NSCLC
HCT-116 colon = test system: HCT-116 colon
LOX IMVI melanoma = test system: LOX IMVI melanoma
OVCAR-5 ovarian = test system: OVCAR-5 ovarian
RXF 393 renal = test system: RXF 393 renal
SK-MEL-5 melanoma = test system: SK-MEL-5 melanoma
SNB-19 CNS = test system: SNB-19 CNS
TK-10 renal = test system: TK-10 renal
DMS 114 small cell lung = test system: DMS 114 small cell lung
SNB-78 CNS = test system: SNB-78 CNS

SMILES | GI50 (COLO 205 colon) [µM] | TGI (COLO 205 colon) [µM] | GI50 (EKVX NSCLC) [µM] | TGI (EKVX NSCLC) [µM] | GI50 (HCT-116 colon) [µM] | TGI (HCT-116 colon) [µM] | GI50 (LOX IMVI melanoma) [µM] | TGI (LOX IMVI melanoma) [µM] | GI50 (OVCAR-5 ovarian) [µM] | TGI (OVCAR-5 ovarian) [µM] | GI50 (RXF 393 renal) [µM] | TGI (RXF 393 renal) [µM] | GI50 (SK-MEL-5 melanoma) [µM] | TGI (SK-MEL-5 melanoma) [µM] | GI50 (SNB-19 CNS) [µM] | TGI (SNB-19 CNS) [µM] | GI50 (TK-10 renal) [µM] | TGI (TK-10 renal) [µM] | TGI (DMS 114 small cell lung) [µM] | TGI (SNB-78 CNS) [µM]
N#Cc1cc(F)cc(Oc2ccc(S(=O)(=O)C(F)F)c3c2CC(F)(F)[C@H]3O)c1 | 25.6 | 63.1 | 25.3 | > 100 | 25.2 | > 100 | 35 | > 100 | 51 | > 100 | 21.5 | > 100 | 17.6 | 34.7 | 37.2 | > 100 | 28.4 | 82.4 | – | –
O=c1[nH]ncc2[nH]c3c(c12)CCc1ccccc1-3 | – | 30.3 | – | 30.2 | – | > 100 | – | > 100 | – | > 100 | – | 42 | – | 25 | – | > 100 | – | 81.2 | – | –
CC1CC(c2ccccc2)=Nc2ccccc2S1 (centres undefined) | – | > 100 | – | > 100 | – | > 100 | – | > 100 | – | > 100 | – | > 100 | – | > 100 | – | > 100 | – | > 100 | > 100 | > 100
O=C(O)[C@H]1NC[C@H]2C(Br)=NO[C@@H]12 | – | > 100 | – | > 100 | – | > 100 | – | > 100 | – | > 100 | – | > 100 | – | > 100 | – | > 100 | – | > 100 | – | –
Cn1c2c(c3c(=O)[nH]ncc31)Cc1ccccc1-2 | – | 54.3 | – | > 100 | – | 60.8 | – | 75.1 | – | > 100 | – | 32.4 | – | 34.9 | – | > 100 | – | 29.3 | – | –
COCOC1CCCC[C@@]1(OCCOCCO[C@@]1(c2ccccc2)CCCC[C@H]1OCOC)c1ccccc1 (some centres undefined) | – | > 100 | – | > 100 | – | > 100 | – | > 100 | – | > 100 | – | > 100 | – | – | – | > 100 | – | > 100 | > 100 | > 100
CC(=O)C1(C(=O)C(=[N+]=[N-])S(=O)(=O)c2ccccc2)CC1 | – | > 100 | – | > 100 | – | > 100 | – | > 100 | – | > 100 | – | > 100 | – | > 100 | – | > 100 | – | > 100 | – | –
O=c1[nH]c2c(Nc3c4ccccc4nc4ccccc34)c([N+](=O)[O-])c(Nc3c4ccccc4nc4ccccc34)c([N+](=O)[O-])c2[nH]1 | – | 5.02 | – | 5.2 | – | 8.45 | – | 7.79 | – | 5.02 | – | 7.19 | – | 4 | – | 13.7 | – | > 22.5 | – | –
CC(C)C(NCc1c2ccccc2[n+](C)c2ccccc12)C(=O)O (centres undefined) | – | 10.6 | – | 24.2 | – | 13.6 | – | 17.3 | – | 33.2 | – | 12.5 | – | 20.8 | – | 33 | – | 21.3 | 5.79 | 24.8
C[C@H]1CCC/C=C/[C@@H]2C[C@H](OC3OC(CO)C(O)C(O)C3O)C[C@H]2[C@H](O)/C=C/C(=O)O1 (some centres undefined) | – | 31.9 | – | > 100 | – | > 100 | – | > 100 | – | > 100 | – | 87.3 | – | 31.6 | – | > 100 | – | > 100 | – | –
Cc1nnc(SCc2nc(C#N)c(C#N)nc2CSc2nnc(C)s2)s1 | – | 25.5 | – | 36.5 | – | 11.5 | – | 23.3 | – | 34.5 | – | 18 | – | 29.2 | – | > 100 | – | 16.3 | – | –
COC1=C(OC)C(=O)C(Cc2c(Cl)nc3sccn23)=C(C)C1=O | – | 29.2 | – | 20.4 | – | 41.3 | – | 10.4 | – | 31.7 | – | 31.1 | – | 17.5 | – | 28.1 | – | 26.6 | – | –
CC1(C)CCC[C@@]2(C)C1CC[C@@]1(CO)O[C@H](C3=CC(=O)OC3O)C[C@H]12 (some centres undefined) | – | 23.2 | – | 60.3 | – | 18.6 | – | 3.42 | – | 37.5 | – | 23.7 | – | 20.9 | – | 32.3 | – | 34.4 | – | –
CN1C(c2ccccc2)CC(O)CC1c1ccccc1 (centres undefined) | – | > 100 | – | > 100 | – | > 100 | – | > 100 | – | > 100 | – | > 100 | – | > 100 | – | > 100 | – | > 100 | > 100 | > 100
COc1c(OC2OC(CO)C(O)C(O)C2O)cc2c(c1OC)-c1ccc(OC)c(=O)cc1C(NC(C)=O)CC2 (centres undefined) | – | > 100 | – | > 100 | – | > 100 | – | > 100 | – | > 100 | – | > 100 | – | > 100 | – | > 100 | – | > 100 | > 100 | > 100
C/C(CCN(C)C)=N/O | – | 15.8 | – | 28.8 | – | 12.5 | – | 16.3 | – | 32.9 | – | 15.7 | – | 24.3 | – | > 100 | – | 20.2 | 20.7 | 51.7
